Measurements taken from paper PMC7997453 (Pharmaceuticals, 2021).

What was measured:
CYP3A4 [1] = biological target: T1, CYP3A4 (Homo sapiens, UniProt P08684); test: Time-dependent inhibition (TDI) assay, testosterone-6β-hydroxylation, CYP3A5*3/*3 HLM; type: biochemical
Protocol: (§1) Testosterone-6β-hydroxylation was used to measure the activity of CYP3A4 and CYP3A5. […] With the corresponding double-reciprocal plot, the derived kinetic constants from the inactivation experiments were estimated.
(§2) Two-step incubation was performed to evaluate the TDI assay. […] After pre-incubation for 3 min at 37 °C in a shaking water bath, the enzymatic reaction was started upon adding NADPH (1 mM) with various pre-reaction time (0, 5, 10, 20, 30 min). For TDI on CYP3A5, NADPH (1 mM) was added to the incubation which contained CYP3A5*1/*3 HLM (0.5 mg/mL) and CYP3cide (1.2 μM) after being pre-warmed for 3 min. […] Next step, an aliquot (20 μL) of the primary pre-reaction mixture was transferred to 180 μL of the secondary incubation system which consisted of PBS (0.1 M), testosterone (200 μM) and NADPH (1 mM). The secondary reaction was incubated at 37 °C for 10 min and terminated by adding 400 μL ice-cold acetonitrile containing prednisolone as the internal standard (0.3150 μM for CYP3A5*3/*3 HLM incubation and 0.07875 μM for CYP3A5*1/*3 HLM incubation). […] The observed inactivation rate of the affected enzyme (kobs) was the negative slope of the linear regression. kinact and KI were calculated using Equation (1) by the double-reciprocal plot. I represents the concentration of the inhibitor. (1) kobs=kinact×I/[…]

CYP3A5 [2] = biological target: T2, CYP3A5 (Homo sapiens, UniProt P20815); test: Time-dependent inhibition (TDI) assay, testosterone-6β-hydroxylation, CYP3A5*1/*3 HLM with CYP3cide; type: biochemical
T2 sequence (P20815 whole entry): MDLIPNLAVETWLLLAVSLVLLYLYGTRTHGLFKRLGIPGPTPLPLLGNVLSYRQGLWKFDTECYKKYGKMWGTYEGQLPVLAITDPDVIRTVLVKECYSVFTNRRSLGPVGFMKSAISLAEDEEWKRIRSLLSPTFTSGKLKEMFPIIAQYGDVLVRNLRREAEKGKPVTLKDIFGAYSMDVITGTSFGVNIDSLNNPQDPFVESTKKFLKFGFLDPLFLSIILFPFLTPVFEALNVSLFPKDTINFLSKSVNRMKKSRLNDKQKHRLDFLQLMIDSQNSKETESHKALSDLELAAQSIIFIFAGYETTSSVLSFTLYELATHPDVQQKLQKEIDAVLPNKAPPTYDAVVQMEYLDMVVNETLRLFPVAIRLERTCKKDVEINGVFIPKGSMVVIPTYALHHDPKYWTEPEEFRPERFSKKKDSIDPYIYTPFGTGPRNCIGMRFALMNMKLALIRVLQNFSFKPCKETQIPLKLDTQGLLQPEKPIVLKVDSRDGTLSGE
Protocol: as §1, §2

[3] = octanol/water partition coefficient; type: physicochemical; details: In-house data
[4] = intrinsic clearance in human liver microsomes; type: in vitro ADME; details: In-house data, read-out: CLint,HLM
CYP3A = test system: CYP3A; parameters: method as in PMID 15342469; details: cited from earlier work
[5] = ref supplement 2; cited from earlier work
Caco-2 cell line = details: ref supplement 3; cited from earlier work
CYP3A4 [6] = biological target: T1, CYP3A4; test: Reversible inhibition (RI) assay on tacrolimus metabolism, CYP3A5*3/*3 HLM
Protocol: (§3) The reactions were started with the addition of nicotinamide adenine dinucleotide phosphate (NADPH, 1 mM) and stopped 10 min later upon adding a double volume of ice-cold methanol. […] Reactions were terminated with the same method as the CYP3A4 group. All incubations were carried out in triplicate. […] Dixon plots were used to analyze the inhibitory type of RI assay and Ki value.

CYP3A5 [7] = biological target: T2, CYP3A5; test: Reversible inhibition (RI) assay on tacrolimus metabolism, CYP3A5*1/*3 HLM with CYP3cide
Protocol: as §3

[8] = parameters: method as in PMID 12676880; details: cited from earlier work
[9] = 0.125 μM STA, 0.2 μM tacrolimus
[10] = 0.125 μM STA, 0.4 μM tacrolimus
[11] = 0.125 μM STA, 0.8 μM tacrolimus
[12] = 0.125 μM STA, 1.6 μM tacrolimus

T1 sequence (P08684 whole entry): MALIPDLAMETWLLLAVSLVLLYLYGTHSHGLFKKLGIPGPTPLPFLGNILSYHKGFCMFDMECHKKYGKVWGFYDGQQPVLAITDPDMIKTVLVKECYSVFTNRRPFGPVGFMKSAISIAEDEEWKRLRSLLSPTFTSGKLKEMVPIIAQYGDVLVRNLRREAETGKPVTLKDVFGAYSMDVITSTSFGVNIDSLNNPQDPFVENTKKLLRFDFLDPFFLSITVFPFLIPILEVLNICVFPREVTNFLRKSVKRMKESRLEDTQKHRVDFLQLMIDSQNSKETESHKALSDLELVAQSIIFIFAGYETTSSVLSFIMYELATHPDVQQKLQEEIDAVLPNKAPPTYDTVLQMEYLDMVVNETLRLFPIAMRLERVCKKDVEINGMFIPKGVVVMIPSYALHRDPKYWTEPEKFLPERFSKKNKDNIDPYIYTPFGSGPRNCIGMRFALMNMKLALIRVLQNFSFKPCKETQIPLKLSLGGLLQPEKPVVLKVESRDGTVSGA

COc1cc2c(c(OC)c1OC)-c1c(cc3c(c1OC)OCO3)CC(C)C(C)(O)C2OC(=O)c1ccccc1 (stereo not shown) [STA, schisantherin A]
TDI profile on CYP3A4 (in words) (CYP3A4 [1]): potent TDI | log of percentage of control activity, Figure 3A, Mean (CYP3A4 [1]; 0.25 μM STA, pre-incubation 0 min): 4.6010 | log of percentage of control activity, Figure 3A, Mean (CYP3A4 [1]; 0.25 μM STA, pre-incubation 5 min): 4.4164 | log of percentage of control activity, Figure 3A, Mean (CYP3A4 [1]; 0.25 μM STA, pre-incubation 10 min): 4.3386 | log of percentage of control activity, Figure 3A, Mean (CYP3A4 [1]; 0.25 μM STA, pre-incubation 20 min): 4.2986 | log of percentage of control activity, Figure 3A, Mean (CYP3A4 [1]; 0.25 μM STA, pre-incubation 30 min): 4.2407 | log of percentage of control activity, Figure 3A, Mean (CYP3A4 [1]; 0.5 μM STA, pre-incubation 0 min): 4.6010 | log of percentage of control activity, Figure 3A, Mean (CYP3A4 [1]; 0.5 μM STA, pre-incubation 5 min): 4.2393 | log of percentage of control activity, Figure 3A, Mean (CYP3A4 [1]; 0.5 μM STA, pre-incubation 10 min): 4.0778 | log of percentage of control activity, Figure 3A, Mean (CYP3A4 [1]; 0.5 μM STA, pre-incubation 20 min): 3.9359 | log of percentage of control activity, Figure 3A, Mean (CYP3A4 [1]; 0.5 μM STA, pre-incubation 30 min): 3.9183 | log of percentage of control activity, Figure 3A, Mean (CYP3A4 [1]; 1 μM STA, pre-incubation 0 min): 4.5902 | log of percentage of control activity, Figure 3A, Mean (CYP3A4 [1]; 1 μM STA, pre-incubation 5 min): 4.1658 | log of percentage of control activity, Figure 3A, Mean (CYP3A4 [1]; 1 μM STA, pre-incubation 10 min): 4.0515 | log of percentage of control activity, Figure 3A, Mean (CYP3A4 [1]; 1 μM STA, pre-incubation 20 min): 3.8785 | log of percentage of control activity, Figure 3A, Mean (CYP3A4 [1]; 1 μM STA, pre-incubation 30 min): 3.5554 | log of percentage of control activity, Figure 3A, Mean (CYP3A4 [1]; 2 μM STA, pre-incubation 0 min): 4.6052 | log of percentage of control activity, Figure 3A, Mean (CYP3A4 [1]; 2 μM STA, pre-incubation 5 min): 4.0322 | log of percentage of control activity, Figure 3A, Mean (CYP3A4 [1]; 2 μM STA, pre-incubation 10 min): 3.5615 | log of percentage of control activity, Figure 3A, Mean (CYP3A4 [1]; 2 μM STA, pre-incubation 20 min): 3.1694 | log of percentage of control activity, Figure 3A, Mean (CYP3A4 [1]; 2 μM STA, pre-incubation 30 min): 3.0051 | kinact/KI (CYP3A4 [1]; CYP3A4): 748.3 M⁻¹ s⁻¹ | KI (CYP3A4 [1]; CYP3A4, testosterone-6β-hydroxylation): 2450 nM | kinact (CYP3A4 [1]; human, CYP3A5*3/*3 human liver microsomes, probe testosterone (200 μM), CYP3A4, testosterone-6β-hydroxylation): 0.00183 s⁻¹ | TDI profile on CYP3A5 (in words) (CYP3A5 [2]): not observed | logP [3]: 1.7 | microsomal CLint [4]: 24 µL/min/mg | KI (inactivation) (CYP3A; erythromycin N-demethylation, read-out: inhibitor concentration causing half-maximal inactivation (KI)): 399 nM | kinact/KI (CYP3A; erythromycin probe substrate): 3843 M⁻¹ s⁻¹ | Ki (CYP3A; reversible inhibition of CYP3A, the substrate is erythromycin, read-out: inhibitory constant (Ki)): 49 nM | fu plasma [5]: 0.083 | Papp,caco-2 (Caco-2 cell line): 34.41 ×10⁻⁶ cm/s | Ki (CYP3A4 [6]): 150 nM | Dixon plot data point, Figure 2A, Mean (CYP3A4 [6]; [9]): 17.0000 | Dixon plot data point, Figure 2A, Mean (CYP3A4 [6]; [10]): 9.0441 | Dixon plot data point, Figure 2A, Mean (CYP3A4 [6]; [11]): 7.1353 | Dixon plot data point, Figure 2A, Mean (CYP3A4 [6]; [12]): 2.6233 | Dixon plot data point, Figure 2A, Mean (CYP3A4 [6]; 0.25 μM STA, 0.2 μM tacrolimus): 21.0000 | Dixon plot data point, Figure 2A, Mean (CYP3A4 [6]; 0.25 μM STA, 0.4 μM tacrolimus): 14.8861 | Dixon plot data point, Figure 2A, Mean (CYP3A4 [6]; 0.25 μM STA, 0.8 μM tacrolimus): 8.3071 | Dixon plot data point, Figure 2A, Mean (CYP3A4 [6]; 0.25 μM STA, 1.6 μM tacrolimus): 3.9072 | Dixon plot data point, Figure 2A, Mean (CYP3A4 [6]; 0.5 μM STA, 0.2 μM tacrolimus): 35.0000 | Dixon plot data point, Figure 2A, Mean (CYP3A4 [6]; 0.5 μM STA, 0.4 μM tacrolimus): 23.9051 | Dixon plot data point, Figure 2A, Mean (CYP3A4 [6]; 0.5 μM STA, 0.8 μM tacrolimus): 13.9244 | Dixon plot data point, Figure 2A, Mean (CYP3A4 [6]; 0.5 μM STA, 1.6 μM tacrolimus): 5.0160 | reversible inhibition on CYP3A4 (in words) (CYP3A4 [6]; CYP3A5*3/*3 HLM, substrate tacrolimus): competitive reversible inhibition | Ki (CYP3A5 [7]): 110 nM | Dixon plot data point, Figure 2B, Mean (CYP3A5 [7]; [9]): 15.0000 | Dixon plot data point, Figure 2B, Mean (CYP3A5 [7]; [10]): 14.0109 | Dixon plot data point, Figure 2B, Mean (CYP3A5 [7]; [11]): 7.5773 | Dixon plot data point, Figure 2B, Mean (CYP3A5 [7]; [12]): 5.6992 | Dixon plot data point, Figure 2B, Mean (CYP3A5 [7]; 0.25 μM STA, 0.2 μM tacrolimus): 23.2012 | Dixon plot data point, Figure 2B, Mean (CYP3A5 [7]; 0.25 μM STA, 0.4 μM tacrolimus): 15.6487 | Dixon plot data point, Figure 2B, Mean (CYP3A5 [7]; 0.25 μM STA, 0.8 μM tacrolimus): 12.0521 | Dixon plot data point, Figure 2B, Mean (CYP3A5 [7]; 0.25 μM STA, 1.6 μM tacrolimus): 5.8700 | Dixon plot data point, Figure 2B, Mean (CYP3A5 [7]; 0.5 μM STA, 0.2 μM tacrolimus): 30.8928 | Dixon plot data point, Figure 2B, Mean (CYP3A5 [7]; 0.5 μM STA, 0.4 μM tacrolimus): 26.2841 | Dixon plot data point, Figure 2B, Mean (CYP3A5 [7]; 0.5 μM STA, 0.8 μM tacrolimus): 14.9975 | Dixon plot data point, Figure 2B, Mean (CYP3A5 [7]; 0.5 μM STA, 1.6 μM tacrolimus): 8.0120 | reversible inhibition on CYP3A5 (in words) (CYP3A5 [7]; CYP3A5*1/*3 HLM with CYP3cide, substrate tacrolimus): competitive reversible inhibition

CC(=O)N1CCN(c2ccc(OCC3COC(Cn4ccnc4)(c4ccc(Cl)cc4Cl)O3)cc2)CC1 (stereo not shown) [ketoconazole]
inhibition (tacrolimus level), CYP3A5 non-expressers versus expressers [8]: more significant inhibition
